Assay results taken from patent US9120805B2, “Substituted pyrrolo[1,2-A]pyrazin-1-ones and pyrazolo[1,5-A]pyrazin-4-ones as inhibitors of tankyrase and poly(ADP-ribose)polymerase activity” (Merck Patent GmbH, priority 2012, dated 2015).
pEC50, pIC50: −log10 of the molar value. Where a name gives a salt, the structure may show the parent alone.

Columns and labels:
[1] = biological target: T1, GST-tagged Tankyrase-1 (1023-1327 aa) (Homo sapiens, UniProt O95271); assay: Tankyrase 1 autoparsylation assay (HTRF enzyme assay); assay type: biochemical
T1 construct: GST-tagged Tankyrase-1 (1023-1327 aa)
Procedure: (§1) Biochemical Activity Testing of Tankyrase 1 and 2: Autoparsylation Assay
(§2) The autoparsylation assay is run in two steps: the enzymatic reaction in which GST-tagged Tankyrase-1, resp Tankyrase-2 transferred biotinylated ADP-ribose to itself from biotinylated NAD as co-substrate and the detection reaction where a time resolved FRET between cryptate labelled anti-GST bound to the GST tag of the enzyme and Xlent® labelled-streptavidin bound the biotin-parsylation residue is analysed. The autoparsylation activity was detectable directly via the increase in HTRF signal.
(§3) The autoparsylation assay is performed as 384-well HTRF® (Cisbio, Codolet, France) assay format in Greiner low volume nb 384-well microtiter plates and is used for high throughput screen. 250 nM GST-tagged Tankyrase-1 (1023-1327 aa), respectively about 250 nM GST-tagged Tankyrase-2 (873-1166 aa) and 5 μM bio-NAD (Biolog, Life science Inst., Bremen, Germany) as co-substrate are incubated in a total volume of 5 μl (50 mM HEPES, 4 mM Mg-chloride, 0.05% Pluronic F-68, 1.4 mM DTT, 0.5% DMSO, pH 7.7) in the absence or presence of the test compound (10 dilution concentrations) for 90 min at 30° C. The reaction is stopped by the addition of 1 μl 50 mM EDTA solution. 2 μl of the detection solution (1.6 μM SA-Xlent® (Cisbio, Codolet, France), 7.4 nM Anti-GST-K® (Eu-labelled anti-GST, Cisbio, Codolet, France) in 50 mM HEPES, 800 mM KF, 0.1% BSA, 20 mM EDTA, 0.1% CHAPS, pH 7.0) are added. After 1 h incubation at room temperature the HTRF is measured with an Envision multimode reader (Perkin Elmer LAS Germany GmbH) at excitation wavelength 340 nm (laser mode) and emission wavelengths 615 nm and 665 nm. The ratio of the emission signals is determined. The full value used is the inhibitor-free reaction. The pharmacological zero value used is XAV-939 (Tocris) in a final concentration of 5 μM. The inhibitory values (IC50) are determined using either the program Symyx Assay Explorer® or Condosseo® from GeneData.

His-tagged Parp-1 = biological target: T2, His-tagged Parp-1 (Homo sapiens, UniProt P09874); assay: PARP-1 autoparsylation assay (HTRF); assay type: biochemical; settings: PARP-1 autoparsylation HTRF assay
T2 construct: purchased Enzo Life Sciences GmbH
Excerpt: Description of the PARP1 Assay
Biochemical Activity Testing of PARP-1: Autoparsylation Assay
The autoparsylation assay is run in two steps: the enzymatic reaction in which
His-tagged Parp-1 transfers biotinylated ADP-ribose/ADP-ribose to itself from biotinylated NAD/NAD as co-substrate and the detection reaction where a time resolved FRET between cryptate labelled anti-His antibody bound to the His tag of the enzyme and Xlent® labelled-streptavidin bound the biotin-parsylation residue is analysed. The autoparsylation activity is detectable directly via the increase in HTRF signal.
The autoparsylation assay is performed as 384-well HTRF® (Cisbio, Codolet, France) assay format in Greiner low volume nb 384-well microtiter plates. 35 nM His-tagged Parp-1 (human, recombinant, Enzo Life Sciences GmbH, Lörrach, Germany) and a mixture of 125 nM bio-NAD (Biolog, Life science Inst., Bremen, Germany) and 800 nM NAD as co-substrate are incubated in a total volume of 6 μl (100 mM Tris/HCl, 4 mM Mg-chloride, 0.01% IGEPAL® CA630, 1 mM DTT, 0.5% DMSO, pH 8, 13 ng/μl activated DNA (BPS Bioscience, San Diego, US)) in the absence or presence of the test compound (10 dilution concentrations) for 150 min at 23° C. The reaction is stopped by the addition of 4 μl of the Stop/detection solution (70 nM SA-Xlent® (Cisbio, Codolet, France), 2.5 nM Anti-His-K® (Eu-labelled anti-His, Cisbio, Codolet, France) in 50 mM HEPES, 400 mM KF, 0.1% BSA, 20 mM EDTA, pH 7.0). After 1 h incubation at room temperature the HTRF is measured with an Envision multimode reader (Perkin Elmer LAS Germany GmbH) at excitation wavelength 340 nm (laser mode) and emission wavelengths 615 nm and 665 nm. The ratio of the emission signals is determined. The full value used is the inhibitor-free reaction. The pharmacological zero value used is Olaparib (LClabs, Woburn, US) in a final concentration of 1 μM. The inhibitory values (IC50) are determined using either the program Symyx Assay Explorer® or Condosseo® from GeneData.

[2] = biological target: T3, GST-tagged Tankyrase-2 (873-1166 aa) (Homo sapiens, UniProt Q9H2K2); assay: Tankyrase 2 autoparsylation assay (HTRF enzyme assay); assay type: biochemical
T3 construct: GST-tagged Tankyrase-2 (873-1166 aa)
Procedure: as §1, §2, §3

tankyrase 1/2 = assay: Cellular inhibition of Tankyrase: increase of Axin2 level in DLD1 cells (Luminex); assay type: cell-based; settings: 24 hours, read-out: EC50 tankyrase 1/2 (cell assay)
Procedure: Measurement of Cellular Inhibition of Tankyrase
Since Tankyrases have been described to modulate cellular level of Axin2 (Huang et al., 2009; Nature) the increase of Axin2 level is used as read-out for determination of cellular inhibition of Tankyrases in a Luminex based assay.
Cells of the colon carcinoma cell line DLD1 are plated in 96 well plates with 1.5×10^4 cells per well. Next day, cells are treated with a serial dilution of test compound in seven steps as triplicates with a final DMSO concentration of 0.3%. After 24 hours, cells are lysed in lysis buffer (20 mM Tris/HCl pH 8.0, 150 mM NaCl, 1% NP40, 10% Glycerol) and lysates are cleared by centrifugation through a 96 well filter plate (0.65 μm). Axin2 protein is isolated from cell lysates by incubation with a monoclonal anti-Axin2 antibody (R&D Systems #MAB6078) that is bound to fluorescent carboxybeads. Then, bound Axin2 is specifically detected with a polyclonal anti-Axin2 antibody (Cell Signaling #2151) and an appropriate PE-fluorescent secondary antibody. The amount of isolated Axin2 protein is determined in a Luminex^200 machine (Luminex Corporation) according to the manufacturer's instruction by counting 100 events per well. Inhibition of Tankyrase by test compounds results in higher levels of Axin2 which directly correlates with an increase of detectable fluorescence. As controls cells are treated with solvent alone (neutral control) and with a Tankyrase reference inhibitor IWR-2 (3E-06 M) which refers as control for maximum increase of Axin2. For analysis, the obtained data are normalized against the untreated solvent control and fitted for determination of the EC50 values using the Assay Explorer software (Accelrys).

T3 sequence (Q9H2K2 873-1166): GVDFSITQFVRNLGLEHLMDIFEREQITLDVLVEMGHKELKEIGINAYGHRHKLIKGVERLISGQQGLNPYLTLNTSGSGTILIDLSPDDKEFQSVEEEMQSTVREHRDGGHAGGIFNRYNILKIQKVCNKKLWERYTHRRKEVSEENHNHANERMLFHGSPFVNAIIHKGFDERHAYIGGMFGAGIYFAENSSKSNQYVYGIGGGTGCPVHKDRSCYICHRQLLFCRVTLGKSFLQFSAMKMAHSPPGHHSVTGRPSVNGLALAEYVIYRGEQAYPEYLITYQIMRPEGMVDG
T2 sequence (P09874 whole entry): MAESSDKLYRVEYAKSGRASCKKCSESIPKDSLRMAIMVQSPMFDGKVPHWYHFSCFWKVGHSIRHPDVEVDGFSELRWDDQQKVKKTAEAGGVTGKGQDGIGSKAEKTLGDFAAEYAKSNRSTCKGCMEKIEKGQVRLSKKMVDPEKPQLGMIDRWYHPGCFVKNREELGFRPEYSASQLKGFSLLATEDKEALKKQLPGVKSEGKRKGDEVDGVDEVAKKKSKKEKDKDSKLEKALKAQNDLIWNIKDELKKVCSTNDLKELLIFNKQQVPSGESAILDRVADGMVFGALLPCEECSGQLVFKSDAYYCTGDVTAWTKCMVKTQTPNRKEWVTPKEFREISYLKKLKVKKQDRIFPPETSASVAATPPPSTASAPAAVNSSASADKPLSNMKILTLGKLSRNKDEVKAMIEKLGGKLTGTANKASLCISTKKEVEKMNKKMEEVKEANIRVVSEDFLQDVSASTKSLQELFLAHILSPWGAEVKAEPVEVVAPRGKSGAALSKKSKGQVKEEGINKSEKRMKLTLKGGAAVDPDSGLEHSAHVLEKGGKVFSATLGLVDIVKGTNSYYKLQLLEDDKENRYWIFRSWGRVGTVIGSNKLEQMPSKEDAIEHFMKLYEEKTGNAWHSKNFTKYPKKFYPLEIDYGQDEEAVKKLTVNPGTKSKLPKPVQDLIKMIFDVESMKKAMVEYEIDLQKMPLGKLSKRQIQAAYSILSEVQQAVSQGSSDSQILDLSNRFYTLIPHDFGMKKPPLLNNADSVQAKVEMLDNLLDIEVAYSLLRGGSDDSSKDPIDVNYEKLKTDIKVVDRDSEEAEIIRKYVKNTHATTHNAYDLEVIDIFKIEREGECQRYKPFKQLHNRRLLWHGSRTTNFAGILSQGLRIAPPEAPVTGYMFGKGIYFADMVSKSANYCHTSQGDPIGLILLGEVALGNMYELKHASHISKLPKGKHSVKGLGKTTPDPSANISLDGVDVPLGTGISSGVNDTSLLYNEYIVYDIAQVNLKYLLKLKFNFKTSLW
T1 sequence (O95271 1023-1327): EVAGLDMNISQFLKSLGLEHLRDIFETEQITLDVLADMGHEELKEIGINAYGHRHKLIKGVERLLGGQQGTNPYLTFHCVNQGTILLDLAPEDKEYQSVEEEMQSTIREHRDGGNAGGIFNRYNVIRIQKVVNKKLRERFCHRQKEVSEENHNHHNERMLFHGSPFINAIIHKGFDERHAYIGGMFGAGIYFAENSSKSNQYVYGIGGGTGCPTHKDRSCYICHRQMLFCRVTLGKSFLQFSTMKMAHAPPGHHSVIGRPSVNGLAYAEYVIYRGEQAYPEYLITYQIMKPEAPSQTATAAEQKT

Work on `O=c1[nH]c(-c2ccc(OCc3ccccc3)cc2)cn2cccc12` [Compound A1, 3-(4-benzyloxy-phenyl)-2H-pyrrolo[1,2-a]pyrazin-1-one] yielded a pIC50 [1] of over 6.52, a pIC50 (His-tagged Parp-1) of 5.52 to 6.52 and a pIC50 [2] of 5.52 to 6.52.

In the case of `O=c1[nH]c(-c2cccc(Cl)c2)cn2cccc12` [Compound A3, 3-(3-chloro-phenyl)-2H-pyrrolo[1,2-a]pyrazin-1-one], the pIC50 [1] was 5.52 to 6.52, the pIC50 (His-tagged Parp-1) was 5.52 to 6.52 and the pIC50 [2] was 5.52 to 6.52.

`COc1cccc(-c2cn3cccc3c(=O)[nH]2)c1` [Compound A4, 3-(3-methoxy-phenyl)-2H-pyrrolo[1,2-a]pyrazin-1-one] gave a pIC50 [1] of 5.52 to 6.52, a pIC50 (His-tagged Parp-1) of 5.52 to 6.52 and a pIC50 [2] of 5.52 to 6.52.

Compound `O=c1[nH]c(-c2ccc([N+](=O)[O-])cc2)cn2cccc12` [Compound A6, 3-(4-nitro-phenyl)-2H-pyrrolo[1,2-a]pyrazin-1-one] has a pIC50 [1] of over 6.52, a pIC50 (His-tagged Parp-1) of 5.52 to 6.52 and a pIC50 [2] of over 6.52.

For `COc1ccc(-c2cn3cccc3c(=O)[nH]2)cc1` [Compound A7, 3-(4-methoxy-phenyl)-2H-pyrrolo[1,2-a]pyrazin-1-one], the pIC50 [1] was over 6.52, the pIC50 (His-tagged Parp-1) was 5.52 to 6.52 and the pEC50 (tankyrase 1/2) was 4.30 to 5.52. For the same compound, the pIC50 [2] was 5.52 to 6.52.

`COc1ccc(-c2cn3cccc3c(=O)[nH]2)cc1OC` [Compound A8, 3-(3,4-dimethoxy-phenyl)-2H-pyrrolo[1,2-a]pyrazin-1-one] gave a pIC50 [1] of 5.52 to 6.52, a pIC50 (His-tagged Parp-1) of 4.30 to 5.52 and a pIC50 [2] of 4.30 to 5.52.

`O=c1[nH]c(-c2ccc3c(c2)OCO3)cn2cccc12` [Compound A9, 3-benzo[1,3]dioxol-5-yl-2H-pyrrolo[1,2-a]pyrazin-1-one] showed a pIC50 [1] of 5.52 to 6.52, a pIC50 (His-tagged Parp-1) of 4.30 to 5.52 and a pIC50 [2] of 5.52 to 6.52.

`O=c1[nH]c(-c2ccc(F)cc2)cn2cccc12` [Compound A10, 3-(4-fluoro-phenyl)-2H-pyrrolo[1,2-a]pyrazin-1-one] gave a pIC50 [1] of 5.52 to 6.52, a pIC50 (His-tagged Parp-1) of 5.52 to 6.52 and a pIC50 [2] of 5.52 to 6.52.

Work on `O=c1[nH]c(-c2ccc(C(F)(F)F)cc2)cn2cccc12` [Compound A13, 3-(4-trifluoromethyl-phenyl)-2H-pyrrolo[1,2-a]pyrazin-1-one] yielded a pIC50 [1] of 5.52 to 6.52, a pIC50 (His-tagged Parp-1) of 5.52 to 6.52 and a pEC50 (tankyrase 1/2) of 5.52 to 6.52. The pIC50 [2] was over 6.52.

`O=c1[nH]c(-c2ccc(C3CCNCC3)cc2)cn2cc(F)cc12` [Compound A77, 7-fluoro-3-(4-piperidin-4-yl-phenyl)-2H-pyrrolo[1,2-a]pyrazin-1-one] was tested, and the pIC50 [1] was over 6.52, the pEC50 (tankyrase 1/2) was 5.52 to 6.52 and the pIC50 [2] was 5.52 to 6.52.

In the case of `CN1CCC(c2ccc(-c3cn4cc(Cl)cc4c(=O)[nH]3)cc2)CC1` [Compound A82, 7-chloro-3-[4-(1-methyl-piperidin-4-yl)-phenyl]-2H-pyrrolo[1,2-a]pyrazin-1-one], the pIC50 [1] was over 6.52, the pEC50 (tankyrase 1/2) was 5.52 to 6.52 and the pIC50 [2] was 5.52 to 6.52.

With `O=c1[nH]c(-c2ccc(C3(O)CNC3)cc2)cn2cccc12` [Compound A86, 3-[4-(3-hydroxy-azetidin-3-yl)-phenyl]-2H-pyrrolo[1,2-a]pyrazin-1-one hydrochloride] the pIC50 [1] was 5.52 to 6.52, the pEC50 (tankyrase 1/2) was 4.30 to 5.52 and the pIC50 [2] was 5.52 to 6.52.

For `Cn1cc(-c2ccc(-c3cn4cc(F)cc4c(=O)[nH]3)cc2)cn1` [Compound A90], the pIC50 [1] was over 6.52, the pEC50 (tankyrase 1/2) was 5.52 to 6.52 and the pIC50 [2] was 5.52 to 6.52.

For `Cc1cc2c(=O)[nH]c(-c3ccc(-c4cnn(C)c4)cc3)cn2c1` [Compound A91], the pIC50 [1] was over 6.52, the pEC50 (tankyrase 1/2) was 5.52 to 6.52 and the pIC50 [2] was 5.52 to 6.52.

`Cc1ccc2c(=O)[nH]c(-c3ccc(Br)cc3)cn12` [Compound A94] gave a pIC50 [1] of over 6.52, a pEC50 (tankyrase 1/2) of 5.52 to 6.52 and a pIC50 [2] of 5.52 to 6.52.

Compound `O=c1[nH]c(-c2ccc(C3(O)CCNCC3)cc2)cn2cccc12` [Compound A99] has a pIC50 [1] of 5.52 to 6.52, a pEC50 (tankyrase 1/2) of 4.30 to 5.52 and a pIC50 [2] of 5.52 to 6.52.
